This is an account of results in ChEMBL document CHEMBL3132769, “Fragment growing to retain or alter the selectivity of anchored kinase hinge-binding fragments” (Medchemcomm, 2014).

Structures are written as SMILES.

Experiment [1] deals with T1, Aurora kinase C (Homo sapiens) (UniProt Q9UQB9).
T1 sequence (whole entry): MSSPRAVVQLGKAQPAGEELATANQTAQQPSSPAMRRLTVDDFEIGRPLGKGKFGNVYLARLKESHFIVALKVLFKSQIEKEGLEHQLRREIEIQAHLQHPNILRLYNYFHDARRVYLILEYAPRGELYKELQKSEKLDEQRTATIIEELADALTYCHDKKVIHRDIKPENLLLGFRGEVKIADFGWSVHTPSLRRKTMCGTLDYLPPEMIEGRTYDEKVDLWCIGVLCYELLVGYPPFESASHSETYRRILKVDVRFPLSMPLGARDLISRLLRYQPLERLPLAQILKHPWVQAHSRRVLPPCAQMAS
Put plainly: Inhibition of human full length AurC expressed in baculovirus assessed as substrate phosphorylation using fluorescence-labelled peptides as substrate at 0.1 uM after 90 mins by microfluidic peptide phosphorylation assay.

Experiment [2] is filed under the species Homo sapiens. The note with it: 0.1 uM.
Description: Inhibition of human full length PKA expressed in baculovirus assessed as substrate phosphorylation using fluorescence-labelled peptides as substrate at 0.1 uM after 90 mins by microfluidic peptide phosphorylation assay
Experiment [3] concerns the target Tyrosine-protein kinase Fer (Homo sapiens) (UniProt P16591). The settings on record: 0.1 uM.
Description: Inhibition of human FER catalytic domain expressed in baculovirus assessed as substrate phosphorylation using fluorescence-labelled peptides as substrate at 0.1 uM after 90 mins by microfluidic peptide phosphorylation assay
In experiment [4] the target is Insulin receptor (Homo sapiens) (UniProt P06213). The note with it: 0.1 uM.
Description: Inhibition of human INSR catalytic domain expressed in baculovirus assessed as substrate phosphorylation using fluorescence-labelled peptides as substrate at 0.1 uM after 90 mins by microfluidic peptide phosphorylation assay
In experiment [5] the target is Tyrosine-protein kinase Fyn (Homo sapiens) (UniProt P06241). The note with it: 0.1 uM.
Tyrosine-protein kinase Fyn (Homo sapiens), sequence (P06241 2-537 limits assumed): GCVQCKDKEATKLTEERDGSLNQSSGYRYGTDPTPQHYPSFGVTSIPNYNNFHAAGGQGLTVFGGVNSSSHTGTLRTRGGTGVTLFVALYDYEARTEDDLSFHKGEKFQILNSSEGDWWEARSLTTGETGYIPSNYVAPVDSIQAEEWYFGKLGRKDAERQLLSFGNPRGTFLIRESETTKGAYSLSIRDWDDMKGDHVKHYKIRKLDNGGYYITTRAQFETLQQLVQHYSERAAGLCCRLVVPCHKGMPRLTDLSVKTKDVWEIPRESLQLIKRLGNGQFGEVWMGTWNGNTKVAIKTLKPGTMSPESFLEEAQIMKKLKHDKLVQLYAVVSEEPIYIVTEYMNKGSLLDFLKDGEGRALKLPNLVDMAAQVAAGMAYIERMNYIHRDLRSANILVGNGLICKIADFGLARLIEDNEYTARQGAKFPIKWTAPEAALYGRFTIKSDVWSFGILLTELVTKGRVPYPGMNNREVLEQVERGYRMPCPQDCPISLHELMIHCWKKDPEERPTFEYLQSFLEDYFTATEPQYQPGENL
Description: Inhibition of human full length FYN expressed in baculovirus assessed as substrate phosphorylation using fluorescence-labelled peptides as substrate at 0.1 uM after 90 mins by microfluidic peptide phosphorylation assay
Experiment [6] concerns the target Tyrosine-protein kinase Fer (Homo sapiens) (UniProt P16591). The experiment is described as follows: Inhibition of human FER catalytic domain expressed in baculovirus assessed as substrate phosphorylation using fluorescence-labelled peptides as substrate at 0.2 uM after 90 mins by microfluidic peptide phosphorylation assay.
The target of experiment [7] is Mitogen-activated protein kinase 14 (Homo sapiens) (UniProt Q16539). The experiment is described as follows: Inhibition of human truncated p38 alpha expressed in Escherichia coli cell assessed as substrate phosphorylation using fluorescence-labelled peptides as substrate at 9 uM after 90 mins by microfluidic peptide phosphorylation assay.
Mitogen-activated protein kinase 14 (Homo sapiens), sequence (Q16539 whole entry, the tested form may be a part, canonical isoform): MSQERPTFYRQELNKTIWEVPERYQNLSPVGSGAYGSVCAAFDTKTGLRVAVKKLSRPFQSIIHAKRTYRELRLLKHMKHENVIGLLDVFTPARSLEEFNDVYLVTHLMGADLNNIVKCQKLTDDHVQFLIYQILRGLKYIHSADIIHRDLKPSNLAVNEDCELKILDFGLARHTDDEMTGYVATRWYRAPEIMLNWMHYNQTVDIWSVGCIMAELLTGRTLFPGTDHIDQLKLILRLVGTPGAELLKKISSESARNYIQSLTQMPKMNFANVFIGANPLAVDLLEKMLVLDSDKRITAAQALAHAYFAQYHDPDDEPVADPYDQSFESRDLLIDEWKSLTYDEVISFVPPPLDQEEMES
Experiment [8] concerns the target Casein kinase I isoform alpha (Homo sapiens) (UniProt P48729). The experiment is described as follows: Inhibition of human full length CSNK1A1 expressed in baculovirus assessed as substrate phosphorylation using fluorescence-labelled peptides as substrate at 9 uM after 90 mins by microfluidic peptide phosphorylation assay.
In experiment [9] the target is Mitogen-activated protein kinase kinase kinase kinase 4 (Homo sapiens) (UniProt O95819). Put plainly: Inhibition of human HGK catalytic domain expressed in baculovirus assessed as substrate phosphorylation using fluorescence-labelled peptides as substrate at 9 uM after 90 mins by microfluidic peptide phosphorylation assay.
Mitogen-activated protein kinase kinase kinase kinase 4 (Homo sapiens), sequence (O95819 2-1239 limits assumed): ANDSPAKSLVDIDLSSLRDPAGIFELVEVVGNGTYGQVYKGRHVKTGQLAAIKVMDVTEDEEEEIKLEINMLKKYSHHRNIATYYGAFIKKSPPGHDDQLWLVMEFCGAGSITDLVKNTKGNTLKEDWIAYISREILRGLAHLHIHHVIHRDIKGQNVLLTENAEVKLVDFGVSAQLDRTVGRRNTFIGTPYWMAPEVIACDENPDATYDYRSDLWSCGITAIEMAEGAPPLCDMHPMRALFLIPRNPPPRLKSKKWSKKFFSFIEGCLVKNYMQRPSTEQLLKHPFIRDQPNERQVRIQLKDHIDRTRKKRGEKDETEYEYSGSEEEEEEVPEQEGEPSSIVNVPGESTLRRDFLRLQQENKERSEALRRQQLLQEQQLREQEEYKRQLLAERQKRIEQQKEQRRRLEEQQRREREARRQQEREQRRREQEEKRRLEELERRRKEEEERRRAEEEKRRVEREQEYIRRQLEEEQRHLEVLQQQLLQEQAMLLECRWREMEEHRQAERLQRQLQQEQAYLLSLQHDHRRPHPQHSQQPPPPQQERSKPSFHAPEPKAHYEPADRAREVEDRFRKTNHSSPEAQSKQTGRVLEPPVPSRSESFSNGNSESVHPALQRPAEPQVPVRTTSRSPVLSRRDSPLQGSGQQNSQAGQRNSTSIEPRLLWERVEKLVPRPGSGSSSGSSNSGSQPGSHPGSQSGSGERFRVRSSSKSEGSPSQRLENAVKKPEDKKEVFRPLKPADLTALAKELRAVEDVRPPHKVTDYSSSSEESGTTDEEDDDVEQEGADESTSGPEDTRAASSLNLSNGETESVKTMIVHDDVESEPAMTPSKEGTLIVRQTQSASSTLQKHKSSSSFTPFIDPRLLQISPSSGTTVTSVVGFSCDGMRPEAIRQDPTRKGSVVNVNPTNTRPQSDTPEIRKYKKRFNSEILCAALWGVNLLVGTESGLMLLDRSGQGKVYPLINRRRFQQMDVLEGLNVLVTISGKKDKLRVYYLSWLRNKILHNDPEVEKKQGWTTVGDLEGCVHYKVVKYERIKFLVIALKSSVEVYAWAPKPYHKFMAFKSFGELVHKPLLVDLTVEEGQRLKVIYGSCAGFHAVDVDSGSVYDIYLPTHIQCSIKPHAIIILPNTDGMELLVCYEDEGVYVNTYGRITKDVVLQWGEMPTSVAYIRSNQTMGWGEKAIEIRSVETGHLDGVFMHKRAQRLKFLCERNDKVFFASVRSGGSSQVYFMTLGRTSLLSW
The target in experiment [10] is T2, cGMP-dependent protein kinase 1 (Homo sapiens) (UniProt Q13976).
T2 sequence (whole entry): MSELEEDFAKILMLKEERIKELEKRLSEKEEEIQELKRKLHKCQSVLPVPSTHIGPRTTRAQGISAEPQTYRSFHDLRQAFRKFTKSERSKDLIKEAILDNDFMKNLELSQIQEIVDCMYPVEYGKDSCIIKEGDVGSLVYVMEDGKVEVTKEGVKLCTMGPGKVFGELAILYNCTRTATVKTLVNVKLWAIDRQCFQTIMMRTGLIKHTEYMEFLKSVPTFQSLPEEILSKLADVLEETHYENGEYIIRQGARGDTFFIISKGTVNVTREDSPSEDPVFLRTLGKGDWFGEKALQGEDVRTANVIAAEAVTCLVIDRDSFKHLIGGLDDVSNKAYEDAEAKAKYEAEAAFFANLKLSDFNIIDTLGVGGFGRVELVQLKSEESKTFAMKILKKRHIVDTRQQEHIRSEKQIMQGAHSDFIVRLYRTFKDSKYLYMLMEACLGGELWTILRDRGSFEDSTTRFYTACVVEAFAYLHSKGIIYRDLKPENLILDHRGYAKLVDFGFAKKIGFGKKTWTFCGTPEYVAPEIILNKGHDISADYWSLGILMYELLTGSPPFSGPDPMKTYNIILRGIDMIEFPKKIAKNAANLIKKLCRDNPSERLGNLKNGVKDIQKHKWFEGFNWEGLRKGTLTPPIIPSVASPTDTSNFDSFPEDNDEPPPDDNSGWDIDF
Put plainly: Inhibition of human full length PKG-1beta expressed in baculovirus assessed as substrate phosphorylation using fluorescence-labelled peptides as substrate at 8 uM after 90 mins by microfluidic peptide phosphorylation assay.

Experiment [11] concerns the target T3, Testis-specific serine/threonine-protein kinase 1 (Homo sapiens) (UniProt Q9BXA7).
T3 sequence (whole entry): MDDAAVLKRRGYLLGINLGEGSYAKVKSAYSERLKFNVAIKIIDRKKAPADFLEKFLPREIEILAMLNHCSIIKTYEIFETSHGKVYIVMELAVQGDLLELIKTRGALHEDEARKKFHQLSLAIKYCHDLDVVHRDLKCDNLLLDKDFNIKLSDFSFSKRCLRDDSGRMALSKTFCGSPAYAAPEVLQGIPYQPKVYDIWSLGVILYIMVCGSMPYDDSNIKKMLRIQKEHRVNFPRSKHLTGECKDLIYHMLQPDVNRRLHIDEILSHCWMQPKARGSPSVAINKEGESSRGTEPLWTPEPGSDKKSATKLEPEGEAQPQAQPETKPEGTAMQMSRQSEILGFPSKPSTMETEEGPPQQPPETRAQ
Put plainly: Inhibition of human full length TSSK1 expressed in baculovirus assessed as substrate phosphorylation using fluorescence-labelled peptides as substrate at 70 uM after 90 mins by microfluidic peptide phosphorylation assay.

The target in experiment [12] is T4, Serine/threonine-protein kinase BRSK2 (Homo sapiens) (UniProt Q8IWQ3).
T4 sequence (whole entry): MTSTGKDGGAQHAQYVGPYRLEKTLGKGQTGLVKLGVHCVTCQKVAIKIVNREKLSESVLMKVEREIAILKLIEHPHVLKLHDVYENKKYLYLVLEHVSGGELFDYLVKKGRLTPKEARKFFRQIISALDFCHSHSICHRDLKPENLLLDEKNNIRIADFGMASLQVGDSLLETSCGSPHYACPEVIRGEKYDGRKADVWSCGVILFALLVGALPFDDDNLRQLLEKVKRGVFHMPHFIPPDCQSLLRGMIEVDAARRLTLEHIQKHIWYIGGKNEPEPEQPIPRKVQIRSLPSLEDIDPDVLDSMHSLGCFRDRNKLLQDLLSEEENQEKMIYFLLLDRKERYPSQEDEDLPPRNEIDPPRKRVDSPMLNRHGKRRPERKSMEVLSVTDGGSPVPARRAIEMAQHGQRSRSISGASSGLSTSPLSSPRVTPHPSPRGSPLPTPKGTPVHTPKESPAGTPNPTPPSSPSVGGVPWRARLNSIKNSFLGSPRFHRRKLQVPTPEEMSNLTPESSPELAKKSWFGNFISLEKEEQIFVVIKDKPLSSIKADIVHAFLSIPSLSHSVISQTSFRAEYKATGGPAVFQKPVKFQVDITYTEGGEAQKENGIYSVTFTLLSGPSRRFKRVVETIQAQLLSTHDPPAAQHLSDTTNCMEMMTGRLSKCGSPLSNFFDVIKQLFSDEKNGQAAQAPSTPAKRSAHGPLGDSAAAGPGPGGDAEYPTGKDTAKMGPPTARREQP
The experiment is described as follows: Inhibition of human truncated BRSK2 expressed in baculovirus assessed as substrate phosphorylation using fluorescence-labelled peptides as substrate at 420 uM after 90 mins by microfluidic peptide phosphorylation assay.

Tyrosine-protein kinase Fer (Homo sapiens), sequence (P16591 whole entry, looked up, the tested form may be a part): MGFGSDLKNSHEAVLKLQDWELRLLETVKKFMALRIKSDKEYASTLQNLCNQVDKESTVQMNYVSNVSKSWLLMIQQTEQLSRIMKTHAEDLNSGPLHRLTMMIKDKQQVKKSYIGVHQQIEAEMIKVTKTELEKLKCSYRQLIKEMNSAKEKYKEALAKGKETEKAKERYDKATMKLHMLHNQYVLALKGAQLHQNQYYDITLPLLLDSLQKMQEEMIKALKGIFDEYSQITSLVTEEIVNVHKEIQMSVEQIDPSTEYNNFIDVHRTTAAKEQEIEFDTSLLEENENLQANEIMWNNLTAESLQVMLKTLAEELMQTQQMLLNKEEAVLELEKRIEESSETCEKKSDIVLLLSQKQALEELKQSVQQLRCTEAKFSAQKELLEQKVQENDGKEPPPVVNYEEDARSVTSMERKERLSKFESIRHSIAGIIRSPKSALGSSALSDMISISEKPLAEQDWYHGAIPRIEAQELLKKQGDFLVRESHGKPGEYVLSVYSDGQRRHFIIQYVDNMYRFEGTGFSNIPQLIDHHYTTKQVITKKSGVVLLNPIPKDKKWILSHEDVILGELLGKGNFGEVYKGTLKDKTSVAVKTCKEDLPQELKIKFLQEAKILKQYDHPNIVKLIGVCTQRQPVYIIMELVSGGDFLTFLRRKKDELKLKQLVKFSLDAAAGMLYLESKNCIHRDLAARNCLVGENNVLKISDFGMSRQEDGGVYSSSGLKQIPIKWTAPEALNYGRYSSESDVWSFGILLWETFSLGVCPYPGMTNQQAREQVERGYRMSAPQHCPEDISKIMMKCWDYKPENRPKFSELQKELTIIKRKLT
Casein kinase I isoform alpha (Homo sapiens), sequence (P48729 2-337 limits assumed): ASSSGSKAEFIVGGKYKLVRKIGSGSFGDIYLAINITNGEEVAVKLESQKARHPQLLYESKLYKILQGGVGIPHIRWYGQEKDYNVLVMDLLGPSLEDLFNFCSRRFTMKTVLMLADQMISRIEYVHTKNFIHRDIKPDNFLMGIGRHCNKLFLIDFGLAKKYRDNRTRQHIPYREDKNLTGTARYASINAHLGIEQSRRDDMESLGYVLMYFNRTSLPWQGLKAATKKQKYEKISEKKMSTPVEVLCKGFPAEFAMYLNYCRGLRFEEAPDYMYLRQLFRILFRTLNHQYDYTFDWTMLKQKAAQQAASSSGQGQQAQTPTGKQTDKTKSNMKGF

In the case of `C[C@H](CN(C)C)Oc1nc(Nc2cc3cccc(Cl)c3cn2)cnc1C#N`, the inhibition stood at 1% in experiment [1]; 0% in experiment [2]; 0% in experiment [3]; 0% in [4]; 0% in [5].

As to `Clc1ccc(C2(c3ccc(-c4ncnc5[nH]cnc45)cc3)CCNCC2)cc1`, the inhibition in experiment [6] amounted to 2.5%.

Turning to `NCC1CN(c2ncnc3[nH]c4cnccc4c23)CCO1` (configuration not stated), the inhibition in experiment [7] was 2.5%; in [8], 13%; in experiment [9] it was 54.5%.

Turning to `NCC1CCN(c2ncnc3[nH]ccc23)CC1`, the inhibition in experiment [10] turned out to be 76.5%.

For the compound `CNCc1ccc(-c2ncnc3[nH]cnc23)cc1`, the inhibition in [11] amounted to 62%.

For the compound `c1nc(N2CCOCC2)c2nc[nH]c2n1`, the inhibition in experiment [12] is 60.5%.
